Experimental data taken from patent US6255100A, “Cyclosporin fermentation process” (Novartis AG, priority 1990, dated 2001).
Non-standard residues stand in square brackets, D forms with d. Residues, ends and D or L forms follow the SMILES beside them. MeBmt = C/C=C/C[C@@H](C)[C@@H](O)[C@H](NC)C(=O)O; NMeL = CN[C@@H](CC(C)C)C(=O)O; NMeV = CN[C@H](C(=O)O)C(C)C; dNMeA = CN[C@H](C)C(=O)O

System: MT4 cells
Experiment: Cytotoxicity in MT4-cells (MTT)
Conditions: not given
Experimental: To evaluate the anti-HIV potential in additional cell lines and particularly in a monocytic cell line (U937), cellular toxicity of the test compound to these cell lines is first assessed. Jurkat and U937 cell suspensions are adjusted to 1×10^5 cells/ml and incubated in the presence of various concentrations of test compound. After 48 hours the amounts of cells per ml are compared by staining with MTT. Cytoxicity in MT4 cells may be measured in the same way.
The significance of these numbers and the appropriate methods are discussed supra.

| SMILES | Cytotoxicity |
| --- | --- |
| C/C=C/C[C@@H](C)[C@@H](O)[C@H]1C(=O)N[C@@H](CC)C(=O)N(C)CC(=O)N(C)[C@@H](CC(C)C)C(=O)N[C@@H](C(C)C)C(=O)N(C)[C@@H](C)C(=O)N[C@@H](C)C(=O)N[C@H](C)C(=O)N(C)[C@@H](CC(C)C)C(=O)N(C)[C@@H](CC(C)C)C(=O)N(C)[C@@H](C(C)C)C(=O)N1C [Compound k), [MeAla]^6 -Ciclosporin] | 5.2 µg/mL |
| CCCC[C@@H](C)[C@@H](O)[C@H]1C(=O)N[C@@H](CC)C(=O)N(C)CC(=O)N(C)[C@@H](CC(C)(C)O)C(=O)N[C@@H](C(C)C)C(=O)N(C)[C@@H](CC(C)C)C(=O)N[C@@H](C)C(=O)N[C@H](C)C(=O)N(C)[C@@H](CC(C)C)C(=O)N(C)[C@@H](CC(C)C)C(=O)N(C)[C@@H](C(C)C)C(=O)N1C [Compound a), [dihydro-MeBmt]^1-[γ-hydroxy-MeLeu]^4 -Ciclosporin] | 16.3 µg/mL |
| C/C=C/C[C@@H](C)[C@@H](O)[C@H]1C(=O)N[C@@H](CC)C(=O)N(C)CC(=O)N(C)[C@@H](CC(C)(C)O)C(=O)N[C@@H](C(C)C)C(=O)N(C)[C@@H](CC(C)C)C(=O)N[C@@H](C)C(=O)N[C@H](C)C(=O)N(C)[C@@H](CC(C)C)C(=O)N(C)[C@@H](CC(C)C)C(=O)N(C)[C@@H](C(C)C)C(=O)N1C [Compound e), [γ-hydroxy-MeLeu]^4 -Ciclosporin] | 15.5 µg/mL |
| C/C=C/C[C@@H](C)[C@@H](O)[C@H]1C(=O)N[C@@H]([C@@H](C)OC)C(=O)N(C)[C@H](C)C(=O)N(C)[C@@H](CC(C)C)C(=O)N(C)[C@@H](C(C)C)C(=O)N(C)[C@@H](CC(C)C)C(=O)N[C@@H](C)C(=O)N[C@H](C)C(=O)N(C)[C@@H](CC(C)C)C(=O)N(C)[C@@H](CC(C)C)C(=O)N(C)[C@@H](C(C)C)C(=O)N1C [Compound i), [MeOThr]^2-[(D)MeAla]^3-[MeVal]^5 -Ciclosporin] (cyclo(A[dA][NMeL][NMeL][NMeV][MeBmt]T(Me)[dNMeA][NMeL][NMeV][NMeL])) | > 10 µg/mL |
| C/C=C/C[C@@H](C)[C@@H](O)[C@H]1C(=O)N[C@@H](CC)C(=O)N(C)CC(=O)N(C)[C@@H](CC(C)C)C(=O)N(C)[C@@H](C(C)C)C(=O)N(C)[C@@H](CC(C)C)C(=O)N[C@@H](C)C(=O)N[C@H](C)C(=O)N(C)[C@@H](CC(C)C)C(=O)N(C)[C@@H](CC(C)C)C(=O)N(C)[C@@H](C(C)C)C(=O)N1C [Compound h), [MeVal]^5 -Ciclosporin] | 4.4 µg/mL |
| C/C=C/C[C@@H](C)[C@@H](O)[C@H]1C(=O)N[C@@H](CCC)C(=O)N(C)CC(=O)N(C)[C@@H](CC(C)(C)O)C(=O)N[C@@H](C(C)C)C(=O)N(C)[C@@H](CC(C)C)C(=O)N[C@@H](C)C(=O)N[C@H](C)C(=O)N(C)[C@@H](CC(C)C)C(=O)N(C)[C@@H](CC(C)C)C(=O)N(C)[C@@H](C(C)C)C(=O)N1C [Compound f), [Nva]^2-[γ-hydroxy-MeLeu]^4 -Ciclosporin] | 14.0 µg/mL |
| C/C=C/C[C@@H](C)[C@@H](O)[C@H]1C(=O)N[C@@H](CC)C(=O)N(C)CC(=O)N(C)[C@@H](CC(C)C)C(=O)N[C@@H](C(C)C)C(=O)N(C)[C@@H](CC(C)C)C(=O)N[C@@H](C)C(=O)N[C@H](C)C(=O)N(C)[C@@H](CC(C)(C)O)C(=O)N(C)[C@@H](CC(C)C)C(=O)N(C)[C@@H](C(C)C)C(=O)N1C [l), [γ-hydroxy-MeLeu]^9 -Ciclosporin] | > 10 µg/mL |
| CC[C@@H]1NC(=O)[C@H]([C@H](O)[C@H](C)C/C=C/CO)N(C)C(=O)[C@H](C(C)C)N(C)C(=O)[C@H](CC(C)C)N(C)C(=O)[C@H](CC(C)C)N(C)C(=O)[C@@H](C)NC(=O)[C@H](C)NC(=O)[C@H](CC(C)C)N(C)C(=O)[C@H](C(C)C)NC(=O)[C@H](CC(C)C)N(C)C(=O)CN(C)C1=O [Compound j), [8'-hydroxy-MeBmt]^1 -Ciclosporin] | 10.6 µg/mL |

Same assay, conditions: MT4-cells, MTT staining

| SMILES | Cytotoxicity |
| --- | --- |
| C/C=C/C[C@@H](C)[C@@H](O)[C@H]1C(=O)N[C@@H](CC)C(=O)N(C)CC(=O)N(C)[C@@H](C(C)C)C(=O)N[C@@H](C(C)C)C(=O)N(C)[C@@H](CC(C)C)C(=O)N[C@@H](C)C(=O)N[C@H](C)C(=O)N(C)[C@@H](CC(C)C)C(=O)N(C)[C@@H](CC(C)C)C(=O)N(C)[C@@H](C(C)C)C(=O)N1C [Compound b), [MeVal]^4 -Ciclosporin] | 5.4 µg/mL |
| C/C=C/C[C@@H](C)[C@@H](O)[C@H]1C(=O)N[C@@H](CC)C(=O)N(C)CC(=O)N(C)[C@@H]([C@@H](C)CC)C(=O)N[C@@H](C(C)C)C(=O)N(C)[C@@H](CC(C)C)C(=O)N[C@@H](C)C(=O)N[C@H](C)C(=O)N(C)[C@@H](CC(C)C)C(=O)N(C)[C@@H](CC(C)C)C(=O)N(C)[C@@H](C(C)C)C(=O)N1C [Compound c), [MeIle]^4 -Ciclosporin] | 4.5 µg/mL |
